Patent US9790229B2, “Bruton's tyrosine kinase inhibitors” (priority 2009, dated 2017)
pIC50: −log10 of the molar value. Read-outs that look alike come from different tables or passages of the source.

Molecular target: BTK (Homo sapiens (Human), UniProt Q06187)
Assay: In vitro BTK kinase assay: BTK-POLYGAT-LS ASSAY
[1] = read-out: IC50 (10 uM ATP), 10 uM ATP, in vitro Btk kinase assay, Example 41

BTK, sequence (Q06187 whole entry): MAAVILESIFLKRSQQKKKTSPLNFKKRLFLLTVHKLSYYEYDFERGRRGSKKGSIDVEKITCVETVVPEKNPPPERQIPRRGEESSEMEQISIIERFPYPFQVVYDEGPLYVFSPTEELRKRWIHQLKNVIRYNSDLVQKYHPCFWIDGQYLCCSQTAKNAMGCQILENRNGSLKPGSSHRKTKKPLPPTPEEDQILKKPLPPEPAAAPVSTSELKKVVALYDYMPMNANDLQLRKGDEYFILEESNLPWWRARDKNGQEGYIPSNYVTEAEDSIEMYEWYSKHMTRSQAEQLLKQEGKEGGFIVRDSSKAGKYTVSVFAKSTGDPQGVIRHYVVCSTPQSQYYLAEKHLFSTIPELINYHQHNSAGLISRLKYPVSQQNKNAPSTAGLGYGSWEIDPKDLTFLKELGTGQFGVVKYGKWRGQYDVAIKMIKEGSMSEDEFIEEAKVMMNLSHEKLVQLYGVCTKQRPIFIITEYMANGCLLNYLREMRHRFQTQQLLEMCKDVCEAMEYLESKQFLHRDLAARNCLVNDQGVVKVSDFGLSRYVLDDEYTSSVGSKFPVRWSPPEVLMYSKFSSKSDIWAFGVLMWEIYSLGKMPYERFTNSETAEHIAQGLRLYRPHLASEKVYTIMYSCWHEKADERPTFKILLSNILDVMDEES

SMILES | pIC50 | pIC50 [1]
O=C(Nc1ccccc1)Nc1cccc(C2CN(c3ncnc4[nH]ccc34)CCN2)c1 (stereo not shown) [compound 125, 1-(3-(4-(7H-pyrrolo[2,3-N]pyrimidin-4-yl)piperazin-2-yl)phenyl)-3-phenylurea] | 5.00 to 6.00 | –
O=C(Nc1cccc(C2CCCN(c3ncnc4[nH]ccc34)C2)c1)Nc1ccccc1C1CCCC1 (stereo not shown) [Cmpd 48, 1-(3-(1-(7H-pyrrolo[2,3-d]pyrimidin-4-yl)piperidin-3-yl)phenyl)-3-(2-cyclopentylphenyl)urea] | 6.00 to 7.00 | –
Nc1ncnc(N2C[C@@H](O)C[C@@H](N3CCCC(Nc4cc(Cl)cc(Cl)c4)C3=O)C2)c1F (stereo partly drawn) [compound 283, (3′R,5′S)-1′-(6-Amino-5-fluoropyrimidin-4-yl)-3-(3,5-dichlorophenylamino)-5′-hydroxy-1,3′-bipiperidin-2-one] | – | > 7.00
O=C(Nc1cccc(C2CCCN(c3ncnc4[nH]ccc34)C2)c1)N1CCCCC1 (stereo not shown) [Cmpd 53, N-(3-(1-(7H-pyrrolo[2,3-d]pyrimidin-4-yl)piperidin-3-yl)phenyl)piperidine-1-carboxamide] | 5.00 to 6.00 | –
O=C(Nc1cccc(C2CCCN(c3ncnc4[nH]ccc34)C2)c1)c1ccc[nH]1 (stereo not shown) [compound 14, N-(3-(1-(7H-pyrrolo[2,3-d]pyrimidin-4-yl)piperidin-3-yl)phenyl)-1H-pyrrole-2-carboxamide] | – | < 5.00
O=C1C(Nc2cc(Cl)cc(Cl)c2)CCCN1[C@H]1CN(c2ncnc3[nH]ccc23)CC[C@@H]1C(F)(F)F (stereo partly drawn) [compound 339, trans-3-(3,5-Dichlorophenylamino)-1′-(7H-pyrrolo[2,3-d]pyrimidin-4-yl)-4′-(trifluoromethyl)-1,3′-bipiperidin-2-one] | – | > 7.00
O=C(Nc1cccc(C2CCCN(c3ncnc4[nH]ccc34)C2)c1)Nc1ccccn1 (stereo not shown) [Cmpd 29, 1-(3-(1-(7H-pyrrolo[2,3-d]pyrimidin-4-yl)piperidin-3-yl)phenyl)-3-(pyridin-2-yl)urea] | 5.00 to 6.00 | –
O=C(Nc1cccc(C2CCCN(c3ncnc4[nH]ccc34)C2)c1)c1cccc(Cl)c1 (stereo not shown) [Cmpd 4, N-(3-(1-(7H-pyrrolo[2,3-d]pyrimidin-4-yl)piperidin-3-yl)phenyl)-3-chlorobenzamide] | 5.00 to 6.00 | –
CCNc1ncnc(N2CCC[C@@H](N3CCCC(Nc4cc(F)cc(Cl)c4)C3=O)C2)c1F (stereo partly drawn) [compound 287, (3′R)-3-(3-Chloro-5-fluorophenylamino)-1′-(6-(ethylamino)-5-fluoropyrimidin-4-yl)-1,3′-bipiperidin-2-one] | 5.00 to 6.00 | –
N[C@H](C(=O)Nc1cccc(C2CCCN(c3ncnc4[nH]ccc34)C2)c1)c1ccccc1 (stereo partly drawn) [Cmpd 20, (2S)—N-(3-(1-(7H-pyrrolo[2,3-d]pyrimidin-4-yl)piperidin-3-yl)phenyl)-2-amino-2-phenylacetamide] | – | < 5.00
O=C(Nc1ccccc1)Nc1cccc(C2CCCN(c3ncnc4[nH]nc(Br)c34)C2)c1 (stereo not shown) [Cmpd 100, 1-(3-(1-(3-Bromo-1H-pyrazolo[3,4-d]pyrimidin-4-yl)piperidin-3-yl)phenyl)-3-phenylurea] | 5.00 to 6.00 | –
CCCNc1ncnc(N2CCC[C@@H](N3CCCC(Nc4cc(F)cc(Cl)c4)C3=O)C2)c1F (stereo partly drawn) [compound 288, (3′R)-3-(3-Chloro-5-fluorophenylamino)-1′-(5-fluoro-6-(propylamino)pyrimidin-4-yl)-1,3′-bipiperidin-2-one] | 5.00 to 6.00 | –
Nc1ncnc(N2CCC[C@@H](N3CCCC(Nc4cc(Cl)cc(Cl)c4)C3=O)C2)c1F (stereo partly drawn) [compound 278, (3′R)-1′-(6-amino-5-fluoropyrimidin-4-yl)-3-(3,5-dichlorophenylamino)-1,3′-bipiperidin-2-one] | – | > 7.00
O=C(NCC1CCCCN1)Nc1cccc(C2CCCN(c3ncnc4[nH]ccc34)C2)c1 (stereo not shown) [compound 252] | – | < 5.00
O=C(Nc1cccc([C@H]2CN(c3ncnc4[nH]ccc34)CC[C@H]2CO)c1)Nc1ccccc1N1CCCC1 [compound 123, 1-(3-((3S/R)-4-(hydroxymethyl)-1-(7H-pyrrolo[2,3-d]pyrimidin-4-yl)piperidin-3-yl)phenyl)-3-(2-(pyrrolidin-1-yl)phenyl)urea] | 6.00 to 7.00 | –
CC(C)c1ccccc1NC(=O)Nc1cccc(C2CCCN(c3ncnc4[nH]ccc34)C2)c1 (stereo not shown) [compound 151] | – | > 7.00
C[C@H]1CCN(c2ncnc(N)c2F)C[C@@H]1N1CCCC(Nc2cc(Cl)cc(Cl)c2)C1=O (stereo partly drawn) [compound 281, trans-1′-(6-Amino-5-fluoropyrimidin-4-yl)-3-(3,5-dichlorophenylamino)-4′-methyl-1,3′-bipiperidin-2-one] | – | > 7.00
Nc1ncnc(N2CCC[C@@H](N3CCCC(NCc4ccccc4)C3=O)C2)c1F (stereo partly drawn) [compound 291, (3′R)-1′-(6-Amino-5-fluoropyrimidin-4-yl)-3-(benzylamino)-1,3′-bipiperidin-2-one] | – | < 5.00
O=C(Nc1csc(C2CCCN(c3ncnc4[nH]ccc34)C2)n1)Nc1ccccc1N1CCCC1 (stereo not shown) [compound 107, 1-(2-(1-(7H-pyrrolo[2,3-d]pyrimidin-4-yl)piperidin-3-yl)thiazol-4-yl)-3-(2-(pyrrolidin-1-yl)phenyl)urea] | – | > 7.00
Cc1cc(NC(=O)Nc2cccc(C3CCCN(c4ncnc5[nH]ccc45)C3)c2)on1 (stereo not shown) [Cmpd 66, 1-(3-(1-(7H-pyrrolo[2,3-d]pyrimidin-4-yl)piperidin-3-yl)phenyl)-3-(3-methylisoxazol-5-yl)urea] | 5.00 to 6.00 | –

SMILES | pIC50 | pIC50 [1]
Nc1ncnc(N2CCCC(c3cccc(NC(=O)Nc4ccccc4)c3)C2)c1Cl (stereo not shown) [Cmpd 99, 1-(3-(1-(6-Amino-5-chloropyrimidin-4-yl)piperidin-3-yl)phenyl)-3-phenylurea] | 5.00 to 6.00 | –
c1ccc(Nc2nc3ccc(C4CCCN(c5ncnc6[nH]ccc56)C4)cc3[nH]2)cc1 (stereo not shown) [compound 105, 6-(1-(7H-pyrrolo[2,3-d]pyrimidin-4-yl)piperidin-3-yl)-N-phenyl-1H-benzo[d]imidazol-2-amine] | 5.00 to 6.00 | –
CC(C)(C)c1ccccc1NC(=O)Nc1cccc([C@H]2CCCN(c3ncnc4[nH]ccc34)C2)c1 [compound 156] | – | > 7.00
Nc1ncnc(N2CCOCC(N3CCCC(Nc4cc(F)cc(Cl)c4)C3=O)C2)c1F (stereo not shown) [compound 345, 1-(4-(6-Amino-5-fluoropyrimidin-4-yl)-1,4-oxazepan-6-yl)-3-(3-chloro-5-fluorophenylamino)piperidin-2-one] | – | > 7.00
O=C1[C@H](Nc2cc(Cl)cc(Cl)c2)CCN1[C@H]1CN(c2ncnc3[nH]ccc23)CC[C@@H]1C(F)(F)F [compound 322] | – | > 7.00
CC(C)c1cccc(C(C)C)c1NC(=O)Nc1cccc(C2CCCN(c3ncnc4[nH]ccc34)C2)c1 (stereo not shown) [compound 154] | – | > 7.00
O=C(Nc1csc(C2CCCN(c3ncnc4[nH]ncc34)C2)n1)Nc1c(F)cc(F)cc1N1CCCC1 (stereo not shown) [compound 112, 1-(2-(1-(1H-pyrazolo[3,4-d]pyrimidin-4-yl)piperidin-3-yl)thiazol-4-yl)-3-(2,4-difluoro-6-(pyrrolidin-1-yl)phenyl)urea] | – | > 7.00
O=C(Nc1ccccc1)Nc1cccc(C2CCCN(c3ncnc4[nH]cnc34)C2)c1 (stereo not shown) [compound 174] | – | 6.00 to 7.00
O=C(Nc1cccc(C2CCCN(c3ncnc4[nH]ccc34)C2)c1)c1ccc(Cl)cc1 (stereo not shown) [Cmpd 3, N-(3-(1-(7H-pyrrolo[2,3-d]pyrimidin-4-yl)piperidin-3-yl)phenyl)-4-chlorobenzamide] | 5.00 to 6.00 | –
CN/C(=N/C#N)Nc1cccc(C2CCCN(c3ncnc4[nH]ccc34)C2)c1 (stereo not shown) [Cmpd 77, (E)-1-(3-(1-(7H-pyrrolo[2,3-d]pyrimidin-4-yl)piperidin-3-yl)phenyl)-2-cyano-3-methylguanidine] | – | < 5.00
Nc1ncnc(N2CC[C@@H](F)[C@H](N3CCC[C@@H](Nc4cc(F)cc(Cl)c4)C3=O)C2)c1F [compound 342, (3R,3′R,4′R)-1′-(6-amino-5-fluoropyrimidin-4-yl)-3-(3-chloro-5-fluorophenylamino)-4′-fluoro-1,3′-bipiperidin-2-one] | – | < 5.00
O=C(Nc1ccccc1)Nc1cc(C2CCCN(c3ncnc4[nH]ccc34)C2)cc(C(F)(F)F)c1 (stereo not shown) [Cmpd 83, 1-(3-(1-(7H-pyrrolo[2,3-d]pyrimidin-4-yl)piperidin-3-yl)-5-(trifluoromethyl)phenyl)-3-phenylurea] | – | < 5.00
Nc1ncnc(N2CC[C@H](C(F)(F)F)[C@@H](N3CCC[C@H](Nc4cc(Cl)cc(Cl)c4)C3=O)C2)c1F [compound 338, trans (3S)-1′-(6-amino-5-fluoropyrimidin-4-yl)-3-(3,5-dichlorophenylamino)-4′-(trifluoromethyl)-1,3′-bipiperidin-2-one] | 5.00 to 6.00 | –
Nc1ncnc(N2CCC[C@@H](N3CCCC(Nc4cc(C(F)(F)F)cc(C(F)(F)F)c4)C3=O)C2)c1F (stereo partly drawn) [compound 310, (3′R)-1′-(6-Amino-5-fluoropyrimidin-4-yl)-3-(3,5-bis(trifluoromethyl)phenylamino)-1,3′-bipiperidin-2-one] | – | > 7.00
O=C(Nc1cccc(C2CCCN(c3ncnc4[nH]ccc34)C2)c1)Nc1ccccc1N1CCCC1=O (stereo not shown) [compound 170] | 6.00 to 7.00 | –
O=C(Nc1ccncc1)Nc1cccc(C2CCCN(c3ncnc4[nH]ccc34)C2)c1 (stereo not shown) [Cmpd 31, 1-(3-(1-(7H-pyrrolo[2,3-d]pyrimidin-4-yl)piperidin-3-yl)phenyl)-3-(pyridin-4-yl)urea] | – | < 5.00
c1cnc(Nc2cccc(C3CCCN(c4ncnc5[nH]ccc45)C3)c2)nc1 (stereo not shown) [compound 141, N-(3-(1-(7H-pyrrolo[2,3-d]pyrimidin-4-yl)piperidin-3-yl)phenyl)pyrimidin-2-amine] | – | < 5.00
O=C(Nc1ccccc1)Nc1ncc(C2CCCN(c3ncnc4[nH]ccc34)C2)s1 (stereo not shown) [compound 115, 1-(5-(1-(7H-pyrrolo[2,3-d]pyrimidin-4-yl)piperidin-3-yl)thiazol-2-yl)-3-phenylurea] | – | < 5.00
O=C(Nc1cccc(C2CCCN(c3ncnc4[nH]ccc34)C2)c1)Nc1ccccc1C(F)(F)F (stereo not shown) [compound 173] | 6.00 to 7.00 | –
C[C@@H]1CCCN1c1cccc(F)c1NC(=O)Nc1cccc(C2CCCN(c3ncnc4[nH]ccc34)C2)c1 (stereo partly drawn) [Cmpd 52, 1-(3-(1-(7H-pyrrolo[2,3-d]pyrimidin-4-yl)piperidin-3-yl)phenyl)-3-(2-fluoro-6-((R)-2-methylpyrrolidin-1-yl)phenyl)urea] | – | > 7.00
